Assay results reported in patent US20090041778A1, “Methods And Compositions For The Treatment Of Graft Failure” (priority 2004, published 2009).
Converted amounts (≈) assume the structure as drawn. “Also recorded” adds a separate entry of the source. Counter-ions that a name gives are not always drawn.

How the values were obtained:
[1] = tested on: human aortic vascular smooth muscle cell (HASOM cells); assay: PDGF-induced migration of HASOM cells in a 24-well Boyden chamber; format: cell-based
Procedure: (§1) The cells were then cultured in the presence of these agents for forty-eight hours prior to the migration assay. […] Each well contained an insert with a polycarbonate filter having 8 μm pores. In preparation for the migration assays, the membranes were coated with 0.1% gelatin for 8 hours, aspirated, and allowed to dry for 2 hours.
(§2) The M-199 media containing 0.5% BSA and 20 ng/ml human PDGF-B (hPDGF-BB) was placed in the bottom Boyden chamber. Cells were incubated at 5% CO2 at 37° C. for twelve hours and the cells lying on the upper surface of the membrane were scraped off. The insert membranes were removed and the cells on the lower surface of each membrane were stained with hematoxylin. Cell migration was then quantified by counting the cells in five random high-power fields on the lower surface of the membrane. All assays were run in triplicate.

[2] = cited from earlier work
[3] = Solubility in aqueous buffer / hydrophilicity; format: physicochemical
neointimal hyperplasia = settings: rabbit carotid artery balloon angioplasty and vein graft intimal hyperplasia models; cited from earlier work
[4] = tested on: neointimal hyperplasia in mouse vein grafts; settings: administered locally; cited from earlier work
[5] = tested on: intimal thickening after balloon angioplasty; settings: rabbit model; administered systemically; cited from earlier work
[6] = tested on: cells of porcine origin from a primary explant of porcine carotid artery; assay: PDGF-induced migration of cells of porcine origin (Boyden chamber); format: cell-based; settings: hPDGF-BB 20 ng/ml; second passage cells; dose dependent
Procedure: as §1, §2

Structure (SMILES): CO[C@H]1C[C@@H]2CC[C@@H](C)[C@@](O)(O2)C(=O)C(=O)N2CCCC[C@H]2C(=O)O[C@H]([C@H](C)C[C@@H]2CC[C@@H](O)[C@H](OC)C2)CC(=O)[C@H](C)/C=C(\C)[C@@H](O)[C@@H](OC)C(=O)[C@H](C)C[C@H](C)/C=C/C=C/C=C/1C [rapamycin]
- IC50 ([1]; Homo sapiens, in vitro VSMC migration, read-out: IC50 for blocking VSMC migration): 1 to 5 ng/mL (≈ 1.09 to 5.47 nM)
- absorption after oral administration [2]: absorbed rapidly and completely
- hydrophilicity [3]: very hydrophilic

Structure (SMILES): COc1cccc(CCc2ccccc2OCC(CN(C)C)OC(=O)CCC(=O)O)c1.Cl (stereo not drawn) [Anplag]
- prevention of neointimal hyperplasia (neointimal hyperplasia): effective

Structure (SMILES): Cc1ccc(C(=O)Nc2ccc(S(=O)(=O)O)c3cc(S(=O)(=O)O)cc(S(=O)(=O)O)c23)cc1NC(=O)c1cccc(NC(=O)Nc2cccc(C(=O)Nc3cc(C(=O)Nc4ccc(S(=O)(=O)O)c5cc(S(=O)(=O)O)cc(S(=O)(=O)O)c45)ccc3C)c2)c1 [Suramin]
- inhibition of neointimal hyperplasia in mouse vein grafts [4]: effective
- inhibition of intimal thickening after balloon angioplasty [5]: inhibit intimal thickening

Structure (SMILES): Cc1ccc(NC(=O)c2ccc(CN3CCN(C)CC3)cc2)cc1Nc1nccc(-c2cccnc2)n1 [Gleevec, imatinib mesylate]
- inhibition of PDGF induced migration of HASOM cells ([1]; hPDGF-BB 20 ng/ml, 48 h drug pre-treatment, 12 h migration, dose dependent): potently inhibited; also recorded: inhibited migration
- inhibition of PDGF-B induced migration of porcine cells [6]: inhibited

Structure (SMILES): O=C(c1ccc(F)cc1)C1CCN(CCn2c(=O)[nH]c3ccccc3c2=O)CC1 [Ketanserin]
- prevention of neointimal hyperplasia (neointimal hyperplasia): effective
